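Five compound concentrations were applied to cells in 96-well plates for 48 hours; endpoints were derived by simple linear interpolation of the resulting dose-response curve. The concentration for 50% growth inhibition is given as GI50.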 The source made the active and inactive calls. No stated cut-off is given here; in the data, active = GI50 up to about 1.1 µM and inactive = higher. Some results are limits rather than exact numbers.

Holding throughout (assay): NCI tumour cell line growth inhibition, 48 h
Assay [1] deals with DMS-273.
Assay [2] has as its system LXFL 529.
Assay [3] has as its system M19-MEL.
For assay [4], the system named is RXF 631.
For assay [5], the system named is SNB-78.
For assay [6], the system named is HOP-18.
Assay [7] deals with BT-549.
Assay [8] has as its system Hs-578T.
The test system of assay [9] is MDA-N.

On to `CCOC(=O)[C@H]1Nc2c(cccc2[N+](=O)[O-])C2c3ccccc3CC21` (stereo partly drawn), for which the GI50 in [1], in assay [2], in assay [3], in [4] and in assay [5] was > 100 µM (inactive) in each case.
`CCCCCC/C(CC(=O)CCC(=O)NCCc1ccccc1)=N\NC(=O)c1ccc2ccccc2c1O`: the GI50 in assay [6] was 12.1 µM (inactive); in assay [2] it was 42.1 µM (inactive); in [3] it was 23.3 µM (inactive); in [4], 61.2 µM (inactive); in assay [5], 67.3 µM (inactive).
With `Cc1sc(N)c(S(=O)(=O)c2ccccc2)c1C`, the GI50 in [7] and in assay [8] was > 100 µM (inactive) in each case.
As to `Nc1ncnc2c1ncn2[C@@H]1O[C@H](COP(=O)(O)O)[C@@H](O)[C@@H]1O`, the GI50 in assay [1], in assay [6], in [3] and in assay [5] was > 50 µM (inactive) each time.
Regarding `C#Cc1c(C)c(/C=C/C(C)=C\C(=O)OC)n(C)c1C`, the GI50 in [1] was > 100 µM (inactive); in assay [6] it was > 100 µM (inactive); in assay [2], 94 µM (inactive); in assay [3], > 100 µM (inactive); in [5], > 100 µM (inactive).
For `CCOC(=O)/C(=N/Nc1ccc(Cl)cc1)N1C(=S)N(C)N=C(C)C=C1S`, the GI50 in assay [8] was 37.1 µM (inactive).
With `COc1ccc2c(c1)CCc1cc(OC)ccc1/[N+]([O-])=[N+]\2[O-]`, the GI50 in assay [7] was 14.8 µM (inactive); in assay [8], 25.1 µM (inactive); in assay [9], 14.3 µM (inactive).
Turning to `COc1ccc(-n2cnn3c(=O)c4cn[nH]c4nc23)cc1`, the GI50 in assay [7] and in assay [8] was > 10 µM (inactive) throughout.
Turning to `CCN(CC)c1ccc2c(c1)Oc1ccc(N(C(C)=O)c3ccccc3)cc1C21OC(=O)c2ccccc21` (stereo not drawn), the GI50 was 98.2 µM (inactive) in assay [7], 58.3 µM (inactive) in [8] and 32.6 µM (inactive) in assay [9].
As to `Nc1nc(SCCC/C=C/I)nc2c1ncn2C1OC(CO)C(O)C1O` (stereo not drawn), the GI50 in [1], in assay [6], in [3] and in [5] was > 202 µM (inactive) in each case.
In the case of `COc1cc(N/N=C/C#N)cc(OC)c1OC`, the GI50 in assay [8] and in assay [9] was > 10 µM (inactive) in each case.
Take `COC(=O)c1sc(=NC(=S)N2CCCCC2)sc1C(=O)OC`: the GI50 in assay [1] is 18.2 µM (inactive); in assay [6] it was > 100 µM (inactive); in assay [2], > 100 µM (inactive); in [3], 5.69 µM (inactive); in assay [4] it was 62.7 µM (inactive); in [5], > 100 µM (inactive).
Regarding `CC(C)NC(=O)OCc1c(COC(=O)NC(C)C)c(-c2cc[n+](COC(=O)Cc3ccccc3)cc2)n2c1CCC2`, the GI50 in assay [7], in assay [8] and in assay [9] was > 100 µM (inactive) throughout.
For the molecule `CN(C)CCCCN1CCc2c(n(C)c3ccccc23)C1=O`, the values for the GI50 in [7], in assay [8] and in assay [9] were 45.4 µM (inactive), 33 µM (inactive) and 19.3 µM (inactive), respectively.
On to `[N-]=[N+]=CC(=O)c1ccccc1C#CCCc1ccccc1`, for which the GI50 is 23.2 µM (inactive) in assay [1] and 40.3 µM (inactive) in assay [6].
For `COc1cc(Nc2nc3ccc(C(F)(F)F)cc3nc2C(=O)O)cc(OC)c1OC`, the GI50 in assay [7] is 19.2 µM (inactive); in assay [8] it was 16.9 µM (inactive); in [9], 19.3 µM (inactive).
Take `Cc1ccc2c3c4c(ccc13)C(C)(C)OC4=C(C(C)C)C2=O`: the GI50 in [7] was 26.5 µM (inactive); in assay [8], 8.36 µM (inactive); in [9], > 100 µM (inactive).
`CN(C)CCCNc1ccc2nnn3c4ccc(O)cc4c(=O)c1c23`: the GI50 in assay [7] was 18.8 µM (inactive); in assay [6], 9.06 µM (inactive); in [8], 1.41 µM (inactive); in assay [2], 6.61 µM (inactive); in assay [3] it was 12.6 µM (inactive); in [9] it was 6.52 µM (inactive). Moreover, in [5], the GI50 is 6.08 µM (inactive).
Take `O=C(CCC(=O)Nc1ccccc1C(F)(F)F)N/N=C1\C(=N\NC(=O)CCC(=O)Nc2ccccc2C(F)(F)F)C(c2ccc3c(c2)OCO3)Oc2ccccc21` (stereo not drawn): the GI50 in [1] was 5.58 µM (inactive); in [6], > 100 µM (inactive); in assay [3] it was 18.4 µM (inactive); in [4], 14 µM (inactive); in assay [5], 25.8 µM (inactive).
For `Nc1nc(Cl)cc(NCCCCCCCCCCCCNc2cc(Cl)nc(N)n2)n1`, the GI50 in assay [1] was 7.57 µM (inactive); in assay [6] it was > 100 µM (inactive); in [2] it was 0.769 µM (active); in assay [3], 11.8 µM (inactive).
For `C=C1C(=O)C[C@@]23CCC[C@@]12CC(O)C3` (stereo partly drawn), the GI50 was 17.3 µM (inactive) in [1], 6.79 µM (inactive) in assay [6], 24.8 µM (inactive) in [3] and 28.2 µM (inactive) in assay [5].
On to `CCCCCCCNC(P(=O)(O)O)P(=O)(O)O`, for which the GI50 in assay [7] was > 100 µM (inactive); in assay [8] it was 34 µM (inactive); in assay [9], > 100 µM (inactive).
For the molecule `O=c1cc(N2CCCC2)[nH]c(=O)n1-c1cccc(C(F)(F)F)c1`, the GI50 in assay [7], in assay [8] and in assay [9] was > 100 µM (inactive) in each case.
In the case of `COC(O)C(=O)c1ccc2c(c1)CC1(C2)Cc2cc3c(cc2C1=O)CCC3` (stereo not drawn), the GI50 was 17.4 µM (inactive) in assay [7], 20.5 µM (inactive) in assay [8] and 19.9 µM (inactive) in assay [9].
As to `[N-]=[N+]=CC(=O)OCC(N)C(=O)O` (stereo not drawn), the GI50 in assay [1] was 0.245 µM (active); in [6], 625 µM (inactive); in assay [3] it was 1.41 µM (inactive); in assay [5], 586 µM (inactive).
As for `COC(=O)c1ccc2c(c1)CCN2C(=O)c1cc2c(cc1Br)OCO2`, the GI50 in assay [7] was 7.18 µM (inactive); in assay [8], 0.658 µM (active); in assay [9], 0.0834 µM (active).
Turning to `CC1CNC(NS(=O)(=O)c2cc(C(=O)Nc3ccc(F)cc3)c(Cl)cc2S)=NN1` (stereo not drawn), in assay [7], the GI50 was > 100 µM (inactive).
For the molecule `CCCCC(C)C1CCC2(C)C=CC(=O)C(C)=C2C1O` (stereo not drawn), the GI50 in assay [1], in assay [6], in assay [3] and in assay [5] was > 100 µM (inactive) each time.
In the case of `COC(=O)c1c(-c2ccccc2)c2sc3ccccc3n2c1N`, the figures for the GI50 in assay [7] and in [9] were > 100 µM (inactive) and 50.4 µM (inactive), respectively.
On to `CCOC(=O)c1ccc(N[C@@H]2c3cc4c(cc3C(c3cc(OC)c(O)c(OC)c3)[C@H]3C(=O)OCC32)OCO4)cc1O` (stereo partly drawn), for which the GI50 was 0.299 µM (active) in assay [1], 2.25 µM (inactive) in assay [6], 0.893 µM (active) in assay [3] and 1.77 µM (inactive) in assay [5].
For the molecule `COc1ccc(C23C(=O)c4ccccc4N2O[C@H]2C(=O)N(c4ccccc4)C(=O)[C@H]23)cc1` (stereo partly drawn), the GI50 in [1], in assay [6], in assay [2], in [3], in assay [4] and in assay [5] was > 100 µM (inactive) throughout.
As to `CC1(C)CCc2cc3c(cc2O1)OC(C)(C)CC3=O`, the GI50 in assay [1] was 71.3 µM (inactive); in assay [2] it was 81.5 µM (inactive); in assay [3], 88.7 µM (inactive).
With `COc1ccc2cc(/C=N/NC(=O)Nc3ccccc3)ccc2c1`, the GI50 in assay [7], in assay [8] and in assay [9] was > 100 µM (inactive) throughout.
For the molecule `Cc1c2ccnc(-c3ccccc3)c2cc2c1[nH]c1ccccc12`, the GI50 in assay [1] was 0.425 µM (active); in [6], 2.15 µM (inactive); in assay [3], 0.959 µM (active); in [5], 4.32 µM (inactive).
Regarding `CCCCCC1CC(C(C)=O)CN1c1ccc(F)cc1` (stereo not drawn), the GI50 in assay [1] was 35.6 µM (inactive); in [6], 13.1 µM (inactive); in assay [2], 32.1 µM (inactive); in assay [3] it was 39.7 µM (inactive); in assay [5] it was 36.4 µM (inactive).
Take `N#Cc1cc2c(cc1C#N)/C(=N\c1cccc(N)n1)N/C2=N\c1cccc(N)n1`: the GI50 in assay [7] is 32.2 µM (inactive); in [8], 18.5 µM (inactive); in [9], 20.3 µM (inactive).
Consider `O=NN(CCCl)C(=O)NC1CCSc2ccccc21` (stereo not drawn), for which the GI50 in assay [1] was > 100 µM (inactive); in [6], > 69 µM (inactive); in assay [3], > 100 µM (inactive); in assay [5], > 100 µM (inactive).
Take `O=C(O)c1nc2ccc(C(F)(F)F)cc2[nH]c1=O`: the GI50 in assay [7], in assay [8] and in assay [9] was > 100 µM (inactive) each time.
As for `CC(=O)OCC1OC(n2cc(F)c(=O)[nH]c2=O)C(NC(=O)OCc2ccccc2)C(OC(C)=O)C1OC(C)=O` (stereo not drawn), the GI50 in assay [1], in [6], in assay [3] and in [5] was > 100 µM (inactive) each time.
`COC(=O)C1=C(C(=O)OC)C(N(C)C)C(C(=O)OC)=C(C(=O)OC)S1`: the GI50 in assay [7], in assay [8] and in [9] was > 100 µM (inactive) each time.
For `O=C(O)c1cc2c3c(c1)[C@H]1C=CC[C@H]1CN3CC1CC=CC21` (stereo partly drawn), the GI50 in assay [1], in assay [6], in [2], in assay [3] and in [5] was > 100 µM (inactive) throughout.
For the molecule `CS(=O)(=O)OCC1=C(COS(C)(=O)=O)C(=O)c2c(O)ccc(O)c2C1=O`, the GI50 in assay [1], in [6], in assay [2], in assay [4] and in [5] was > 100 µM (inactive) throughout.
With `COC(=O)CC1(CNC(=O)OCc2ccccc2)OCCO1`, the GI50 in [7] and in assay [9] was > 100 µM (inactive) throughout.

The values are drawn from ChEMBL document CHEMBL1201862, “PubChem BioAssay data set” (2004).
